# Assays:
# [1] = test system: laminae I excitatory neurons in the SDH; test: mIPSCs/mEPSCs recordings from acute spinal slices of chronically treated rats; type: in vivo, rat; settings: SNL rats, ZL006 0.2 mg/d intrathecal × 11 days
# Description: (§1) Osmotic minipumps (models 1004 for mouse and 2ML4 for rat; Alzet) and intrathecal cannulas (0.61 mm outer diameter and 0.28 mm inner diameter for mouse, 0.99 mm outer diameter and 0.58 mm inner diameter for rat) were filled with a solution of PBS. Cannulas were inserted into the subarachnoid space through the space between the L5 and L6 vertebrae and the tip of the catheter was implanted at the L5 spinal segmental level.
# All solutions were bubbled with 95% O2 -5% CO2.
# For mPSCs measurements, whole-cell recordings were made from putative excitatory neurons in superficial dorsal horn using low-resistance pipettes (4-8 MΩ). Before mPSCs measurements, excitatory neurons were distinguished from inhibitory neurons by firing pattern analysis according to the established relationship between neuronal firing pattern and its neurotransmitter phenotype, [32]-[34] For mEPSCs measurement, the membrane potential was held at -60 mV. […] Tetrodotoxin (0.5 μM) and bicuculline (20 μM) were added to block action potentials and GABAA receptor-mediated currents respectively. For mIPSCs measurement, the membrane potential was held at -70 mV, microelectrodes were filled with internal pipette solution containing CsCl 140, HEPES 10.0, MgATP 4.0, NaGTP 3.0, EGTA 1.0, MgCl2 1.0, CaCl2 0.3 (in mM). […]. […] Each recording lasts more than 5 min. Data were analyzed using Mini software. Up to 120 events from each neuron were selected at a fixed sampling interval to generate cumulative probability.
# [2] = test system: SNL-induced mechanical hyperalgesia; test: SNL-induced mechanical hyperalgesia, paw withdrawal threshold; type: in vivo, rat; settings: SNL rats, ZL006 0.2 mg/d intrathecal infusion × 11 days
# Protocol: (§2) Neuropathic pain was induced by segmental spinal nerve ligation (SNL). Animals were anesthetized with isoflurane. After the loss of righting reflex, the animal was fixed in the prone position. The SNL model was prepared as described previously: a median skin incision with about 3-5 cm length in L4-S2 level of the mouse back was made, the muscles next to the vertebrae till the sixth lumbar protruding were separated, the L5/L6 joint protruding on the right side was exposed and excised, and L6 processus transversus was partially split so that the L4-L6 spinal nerves on the right side were exposed. L5 nerve was gently isolated and tightly ligated with 5-0 silk thread. The wound was closed with 4-0 silk thread suture and covered with iodine solution. After nerve ligation, animals with signs of paw clonus or autotomy were excluded from further experiments.
# as §1
# For rats, the threshold for 50% paw withdrawal (50% PWT) response to mechanical stimulus was assessed through a dynamic plantar apparatus (Ugo Basile, Italy). The 50% PWT refers to that the probability of paw withdrawal response to repeated mechanical stimulus is 50%. Rats were placed individually in a plastic cage (17 × 15 × 15 cm) with a wire mesh bottom which allowed full access to the paws. Behavioral accommodation was allowed for 15-20 min until cage exploration and major grooming activities ceased. A maximal cut-off of 50g/50s was set to prevent tissue damage. To record the PWT in response to mechanical stimulus, each rat was measured five times with a 5-min interval, and the mean value was recorded after excluding maximal and minimum values. The experimental procedures were performed in a double-blind manner.
# [3] = test system: SNL-induced mechanical hyperalgesia; test: SNL-induced mechanical hyperalgesia, von Frey; type: in vivo, mice; settings: WT and nNOS-/- mice, ZL006 i.v., 20 mg/kg
# Protocol: as §2
# For mice, the threshold for 50% PWT response to mechanical stimulus was quantified by assessing the paw withdrawal threshold using von Frey filaments (Touch-Test TM Sensory Evaluator, North coast Medical, Inc.). Mice were placed individually in a plastic cage (4.5 × 5 × 11 cm) with a wire mesh bottom which allowed full access to the paws. Behavioral accommodation was allowed for 20-30 min until cage exploration and major grooming activities ceased. Mechanical threshold was measured by applying a von Frey filament to the ventral surface of the right hind paw until a positive sign of pain behavior was elicited. The paradigm for assessing the threshold was as follows. Von Frey filaments with logarithmically incremental stiffness (0.02-2 g) were applied serially to the paw by the up-down method. The filaments were presented, in ascending order of strength, perpendicular to the plantar surface with sufficient force to causes light bending against the paw and held for 4s. A positive response was noted if the paw was sharply withdrawn. Flinching immediately upon removal of the hair was also considered a positive response. The 2-g filament was selected as the upper limit cut-off for testing. If there was no response at 2-g filament, animals were assigned this cut-off value. The pattern of positive and negative withdrawal responses was converted to 50% threshold according to the formula: 50% PWT = 10 log (X) + κδ. X = value (in log unit) of the final von Frey hair used; κ is correction factors based on the pattern of responses from the calibration table; δ = mean difference in log units between stimuli (here, 0.224).
# [4] = test system: SNL-induced thermal hyperalgesia; test: SNL-induced thermal hyperalgesia, paw withdrawal latency (Hargreaves); type: in vivo, rat; settings: SNL rats, ZL006 0.2 mg/d intrathecal infusion × 11 days
# Protocol: as §2
# Osmotic minipumps (models 1004 for mouse and 2ML4 for rat; Alzet) and intrathecal cannulas (0.61 mm outer diameter and 0.28 mm inner diameter for mouse, 0.99 mm outer diameter and 0.58 mm inner diameter for rat) were filled with a solution of PBS. […]
# (§3) Paw withdrawal latency (PWL) response to thermal stimulus was assessed through the Hargreaves test. […] To record the PWL in response to thermal stimulus, each animal was measured five times with a 5-min interval, and the mean value was recorded after excluding maximal and minimum values. […]
# [5] = test system: SNL-induced thermal hyperalgesia; test: SNL-induced thermal hyperalgesia, paw withdrawal latency; type: in vivo, mice; settings: WT and nNOS-/- mice, ZL006 i.v., 20 mg/kg
# Protocol: as §2, with “The wound was closed with 4-0 silk thread suture and covered with iodine solution. After nerve ligation, animals with signs of paw clonus or autotomy were excluded from further experiments.” left out
# as §3
# (A) Time course of SNL-induced thermal hyperalgesia after treating with ZL006-05 (60 mg/kg, i.g.) in mice. Paw withdrawal latency response to thermal stimulation was detected at 0, 1, 2, 4, 6, 8, 10, 12 and 24 h after drug administration. ( B) Areas under the curve of paw withdrawal latency 0-24 h after treatment calculated from ( A) (F (1,16) = 43.07, ***p < 0.001, two-tailed t-test, n = 9). […]
# [6] = test system: neuropathic pain; set-up: method as in PMID 32632774; settings: treatment of neuropathic pain, chronic use; cited from earlier work
# [7] = target: T1, PSD-95-nNOS complex (Rattus norvegicus, UniProt P29476); test: Co-IP of PSD-95-nNOS complex levels in the spinal dorsal horn after SNL; type: in vivo; settings: SNL rats, ZL006 10 mg/kg, i.v.
# T1 construct: dorsal spinal cord tissues (L4 and L5) were lysed in 400 μl RIPA; from tissue; host or cells: rat dorsal spinal cord (L4 and L5), SNL model
# T1 sequence (P29476 whole entry, one chain of several): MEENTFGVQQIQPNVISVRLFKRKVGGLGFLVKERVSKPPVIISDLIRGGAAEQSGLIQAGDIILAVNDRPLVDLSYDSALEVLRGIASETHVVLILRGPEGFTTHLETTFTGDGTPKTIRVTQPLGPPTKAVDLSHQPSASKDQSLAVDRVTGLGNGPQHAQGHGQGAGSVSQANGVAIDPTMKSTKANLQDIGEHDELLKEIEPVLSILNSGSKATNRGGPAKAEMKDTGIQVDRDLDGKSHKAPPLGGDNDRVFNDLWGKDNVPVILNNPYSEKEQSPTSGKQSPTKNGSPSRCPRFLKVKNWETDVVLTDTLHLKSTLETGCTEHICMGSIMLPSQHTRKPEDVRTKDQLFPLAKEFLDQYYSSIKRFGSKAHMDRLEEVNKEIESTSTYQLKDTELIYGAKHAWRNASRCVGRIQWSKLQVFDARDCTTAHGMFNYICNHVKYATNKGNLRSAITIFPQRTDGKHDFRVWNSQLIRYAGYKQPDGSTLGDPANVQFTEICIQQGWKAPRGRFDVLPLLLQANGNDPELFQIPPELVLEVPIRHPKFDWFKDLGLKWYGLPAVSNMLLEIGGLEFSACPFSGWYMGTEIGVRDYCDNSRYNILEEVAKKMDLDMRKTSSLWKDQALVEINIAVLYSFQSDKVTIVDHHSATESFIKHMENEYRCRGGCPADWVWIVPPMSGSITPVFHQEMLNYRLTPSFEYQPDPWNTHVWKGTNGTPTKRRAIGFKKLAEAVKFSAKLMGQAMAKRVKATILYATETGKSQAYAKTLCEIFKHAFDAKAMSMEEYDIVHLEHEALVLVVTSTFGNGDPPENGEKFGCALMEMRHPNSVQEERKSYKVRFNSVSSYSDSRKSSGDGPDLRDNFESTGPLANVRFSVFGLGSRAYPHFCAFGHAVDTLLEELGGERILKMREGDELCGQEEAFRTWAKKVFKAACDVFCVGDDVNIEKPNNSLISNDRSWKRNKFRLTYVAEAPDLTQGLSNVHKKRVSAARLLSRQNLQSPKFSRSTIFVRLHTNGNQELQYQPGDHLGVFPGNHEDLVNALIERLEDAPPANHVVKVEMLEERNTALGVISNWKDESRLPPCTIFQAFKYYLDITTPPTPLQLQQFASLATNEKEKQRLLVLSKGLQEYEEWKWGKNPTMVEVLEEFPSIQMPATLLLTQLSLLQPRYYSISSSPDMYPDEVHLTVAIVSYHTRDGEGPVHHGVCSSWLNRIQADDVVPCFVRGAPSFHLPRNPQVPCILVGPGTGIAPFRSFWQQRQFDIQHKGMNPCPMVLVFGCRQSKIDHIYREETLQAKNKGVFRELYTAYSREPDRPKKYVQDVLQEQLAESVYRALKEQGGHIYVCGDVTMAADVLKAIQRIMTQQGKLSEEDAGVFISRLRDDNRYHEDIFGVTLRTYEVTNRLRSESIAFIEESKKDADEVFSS
smiles,measurement,setting,value
O=C(O)c1ccc(NCc2cc(Cl)cc(Cl)c2O)cc1O [ZL006],mEPSCs,[1],did not affect SNL-induced increase in miniature excitatory postsynaptic currents (mEPSCs)
same,mIPSCs frequency and amplitude,[1]; vs vehicle,significantly lower than that in vehicle-treated rats
same,Antinociceptive effect on mechanical hyperalgesia during chronic use (tolerance),[2],"decreased dramatically at d 7 and d 11, compared to d 1"
same,Effect on SNL-induced mechanical hyperalgesia,[3],attenuated both mechanical and thermal hyperalgesia markedly in WT but not in nNOS^-/- mice
same,Antinociceptive effect on thermal hyperalgesia during chronic use (tolerance),[4],"decreased dramatically at d 7 and d 11, compared to d 1"
same,Effect on SNL-induced thermal hyperalgesia,[5],attenuated both mechanical and thermal hyperalgesia markedly in WT but not in nNOS^-/- mice
same,Analgesic tolerance when used chronically,[6],cause obvious analgesic tolerance
same,PSD-95-nNOS complex level in the SDH,[7],reversed the SNL-induced upregulation of PSD-95-nNOS interaction
